Assay results taken from patent US20120065267A1, “COMPOSITIONS INCLUDING 3,5-L-T2 AND METHODS OF USE THEREOF” (priority 2010, published 2012).
Where “and” joins values, the source holds several entries; their conditions need not be identical. Equal values may be shown once.

Tested on: C57, LDLr+/− and LDLr0 mice
Test: Serum cholesterol in mice on Western Diet given daily oral T2
Format: in vivo
Parameters: Cholesterol / Cholesterol (Ave): unit not given here
Details: for lowered cholesterol, average: vs vehicle; for Cholesterol (Ave): group average; for Cholesterol: individual animal
Method: This corresponds to a dosage for an 80 kg human of about 20-200 mg/day, or a low dose of about 0.2-0.3 mg/kg of body weight to a high dose of about 2-3 mg/kg of body weight. One will appreciate, however, that some subjects (e.g., subjects having very low LDL receptor function) may receive higher doses, depending on need. likewise, some subjects may receive lower doses, which again depends on need. Mice in the study were fed a standard lab chow referred to as the “Western Diet.” The overall level of fat and the saturated nature of the fat are representative diets typical in the industrialized west that are linked to risk of cardiovascular disease in humans. The formula is used primarily with genetically manipulated rodent models that are susceptible to high cholesterol and cardiovascular disease. The diet may also be useful in diet-induced obesity, diabetes, and metabolic syndrome models. High cholesterol, obesity, and diabetes are each associated increased risk for cardiovascular disease. The composition of the Western Diet is shown below. C57 is a wild-type strain, LDLr+/− are a strain carrying one functional copy of the LDLr gene, and the LDLr0 animals are total LDLr knockouts. The LDLr gene encodes for the LDL receptor protein, which is responsible for scavenging LDL with bound cholesterol from the blood and transporting it into cells. Both heterozygous and homozygous LDLr knockout animals develop very high serum cholesterol levels and are considered to be a good model for heterozygous and homozygous familial hypercholesterolemia in humans. […] LDLr knockout animals have zero LDL receptor function.

Structure (SMILES): N[C@@H](Cc1cc(I)c(Oc2ccc(O)cc2)c(I)c1)C(=O)O [T2, (2S)-2-amino-3-[4-(4-hydroxyphenoxy)-3,5-diiodophenyl]propanoic acid]
- lowered cholesterol, average (C57 animals, high dose T2 2.5 mg/kg daily oral): about 67%
- lowered cholesterol, average (C57 animals, low dose T2 0.25 mg/kg daily oral): about 38%
- Cholesterol (Ave) (C57 mice, 1 Week High Dose, T2 2.5 mg/kg daily oral): 60.8
- Cholesterol (C57 mice, 1 Week High Dose, T2 2.5 mg/kg daily oral, 2.5 mg/kg): 41.312 and 53.718 and 75.711 and 62.741 and 70.636
- Cholesterol (Ave) (C57 mice, 1 Week Low Dose, T2 0.25 mg/kg daily oral): 113.5
- Cholesterol (C57 mice, 1 Week Low Dose, T2 0.25 mg/kg daily oral, 0.25 mg/kg): 96.130 and 114.249 and 104.366 and 114.798 and 137.858
- Cholesterol (Ave) (LDLr0 mice (first group), 1 Week High Dose, T2 2.5 mg/kg daily oral): 320.4
- Cholesterol (LDLr0 mice (first group), 1 Week High Dose, T2 2.5 mg/kg daily oral, 2.5 mg/kg): 303.529 and 337.364
- Cholesterol (Ave) (LDLr0 mice (first group), 1 Week Low Dose, T2 0.25 mg/kg daily oral): 823.5
- Cholesterol (LDLr0 mice (first group), 1 Week Low Dose, T2 0.25 mg/kg daily oral, 0.25 mg/kg): 1063.848 and 593.252 and 813.532
- Cholesterol (Ave) (LDLr0 mice (second group), 1 Week Low Dose, T2 0.25 mg/kg daily oral): 930.5
- Cholesterol (LDLr0 mice (second group), 1 Week Low Dose, T2 0.25 mg/kg daily oral, 0.25 mg/kg): 611.760 and 750.720 and 813.250 and 1112.010 and 1167.590 and 438.070 and 1000.840 and 1549.720
- Cholesterol (Ave) (LDLr0 mice (second group), 2 Week Low Dose, T2 0.25 mg/kg daily oral): 1026.8
- Cholesterol (LDLr0 mice (second group), 2 Week Low Dose, T2 0.25 mg/kg daily oral, 0.25 mg/kg): 996.905 and 1035.325 and 944.755 and 988.670 and 1092.965 and 524.830 and 1189.025 and 1441.530
- lowered cholesterol, average (LDLr knockout animals, high dose T2 2.5 mg/kg daily oral): about 80%
- lowered cholesterol, average (LDLr knockout animals, low dose T2 0.25 mg/kg daily oral): about 46%
- lowered cholesterol, average (LDLr+/− animals, high dose T2 2.5 mg/kg daily oral): about 67%
- lowered cholesterol, average (LDLr+/− animals, low dose T2 0.25 mg/kg daily oral): about 26%
- Cholesterol (Ave) (LDLr+/− mice, 1 Week High Dose, T2 2.5 mg/kg daily oral): 93.8
- Cholesterol (LDLr+/− mice, 1 Week High Dose, T2 2.5 mg/kg daily oral, 2.5 mg/kg): 84.169 and 99.395 and 103.342 and 102.778 and 66.124 and 107.29
- Cholesterol (Ave) (LDLr+/− mice, 1 Week Low Dose, T2 0.25 mg/kg daily oral): 188.8
- Cholesterol (LDLr+/− mice, 1 Week Low Dose, T2 0.25 mg/kg daily oral, 0.25 mg/kg): 185.075 and 229.548 and 196.605 and 160.917 and 172.447 and 188.370
